The source of these data is patent US7122668B2, “Platinum complexes and their use in therapy” (priority 2002, dated 2006).

SMILES strings stand for the structures.

The test system of one assay is 41M. Kind of assay: Microculture tetrazolium (MTS) cell survival assay. It is filed as cell-based. The settings on record: 24 hours incubation. The procedure: (§1) Cytotoxicity of the synthesized complexes was also tested by the MTS method^(21). Accordingly, the compounds were incubated for 24 hours with the corresponding cell lines and the cell survival in compound-treated cultures was evaluated.
(§2) The complexes were incubated for 24 hours with the above mentioned cell lines and the cell survival in compound-treated cultures was evaluated by the (microculture tetrazolium) MTS method as previously reported.

In another assay the test system is A2780. Kind of assay: Microculture tetrazolium (MTS) cell survival assay. In kind it is cell-based. The settings on record: 24 hours incubation. The protocol:
as §1, §2

The test system of a further assay is 41McisR. Kind of assay: Microculture tetrazolium (MTS) cell survival assay. In kind it is cell-based. The procedure:
as §1, §2

The subject of the next assay is A2780cisR. Kind of assay: Microculture tetrazolium (MTS) cell survival assay. It is filed as cell-based. The protocol: as §1, §2
The subject of another assay is CH1. The experiment in a line: Microculture tetrazolium (MTS) cell survival assay. The note with it: 24 hours incubation. In kind it is cell-based. The procedure:
as §1, §2

The next assay has as its system CH1cisR. The experiment in a line: Microculture tetrazolium (MTS) cell survival assay. In kind it is cell-based. The protocol: as §1, §2
Another assay deals with plasmid pS16-hGH DNA. The experiment in a line: Determination of Pt-DNA adducts by EtBr fluorescence. The settings on record: DNA modified 24 hr. In kind it is binding. The protocol: A plasmid (4.8 kbp) containing a gene coding for human growth hormone, plasmid pS16-hGH, was prepared as previously described^(23). The freshly prepared DNA was analyzed by agarose gel (1%) electrophoresis using post-staining with SYBR Green I fluorescent dye (Molecular Probes, Eugene, Oreg.). […] The ratio of absorbance at 260 nm to that at 280 nm was always between 1.8 and 1.9.
DNA were modified by the platinum complexes in 10 mM NaClO4 (pH 7.0) at 37° C. in the dark for 24 hr. Measurements of EtBr fluorescence were performed on an LS50B luminescence spectrometer (Perkin Elmer, Norwalk, Conn.). Fluorescence measurements of DNA modified by platinum in the presence of EtBr were performed using the excitation wavelength of 546 nm (slit 10 run) and emission wavelength of 590 nm (slit 10 nm) at 25° C. The concentrations were 0.01 mg/ml for DNA and 0.04 mg/ml for EtBr, which corresponded to the saturation of all intercalation sites of EtBr in DNA.
EtBr, as the fluorescent probe, was used to distinguish between perturbations induced in DNA by adducts of platinum (II) compounds^(14). Binding of EtBr by intercalation is blocked in a stoichiometric manner by formation of the bifunctional adducts, as of Cis-Pt, which results in a loss of fluorescence intensity. On the other hand, formation of monofunctional adducts results only in a slight decrease of EtBr fluorescence.

The subject of assay [1] is OV-1063 cells. Kind of assay: Platinum complex intracellular accumulation (FAAS). In kind it is cell-based, human. The note with it: OV-1063, 24 hr. The protocol: (§3) Cells were seeded for 48 hr before one of the complexes was added to the culture medium. After 24 hr of exposure, the complexes were removed and the cells washed twice with ice-cold PBS and pelleted. The cells (1*10^6) were dried and mineralized by heating for 10 min in 65% HNO3 (BDH, England)^(22). Samples were dissolved in de-ionized water and each sample was measured at two different dilutions by flameless Zeeman atomic absorption spectrometer (FAAS). The calibration curves included 5 standards of K2PtCl4 stock solution with concentrations ranging from 50 to 250 ng platinum per ml. Platinum content was expressed as picomoles platinum per 1*10^6 cells.
(§4) The Pt content associated with the cells was measured by Atomic Absorption Spectroscopy (AAS).

The test system of assay [2] is C-26 cells. Kind of assay: Platinum complex intracellular accumulation (FAAS). In kind it is cell-based, human. The settings on record: C-26, 24 hr. The protocol: as §3, §4
Assay [3] concerns OV-1063 cells. Kind of assay: Determination of Pt-DNA adducts by FAAS. It is filed as cell-based, human. The protocol:
(§5) Cells were seeded for 48 hr before one of the drugs was added to the culture medium. After 24 hr of exposure, the complexes were removed and the cells washed twice with ice-cold PBS and pelleted. DNA from platinum-containing material (2*10^6 cells) was extracted from the cell pellet by QIAamp DNA Blood Kit (QIAGEN, Germany) according to the manufacture instructions. DNA yield was determined by measuring the concentration of DNA in the eluate by absorbance at 260 nm.

Assay [4] deals with C-26 cells. Kind of assay: Determination of Pt-DNA adducts by FAAS. In kind it is cell-based, human. The protocol: as §5
Assay [5] deals with caspase-3 in OV-1063 cells. Kind of assay: EnzChek Caspase-3 assay. In kind it is cell-based, human. The source says: (§6) (2) By the EnzChektm Caspase-3 Assay Kit (Molecular probes, Eugene, Oreg.). This Kit allows the detection of apoptosis by assaying for increases in caspase-3 and other DEVD-specific protease activities (e.g., caspase-7). The basis for the assay is rodamine 110 bis-(N-CBZ-aspartil-L-glutarnyl-L-valyl-aspartic acid amide) (Z-DEVD-R110). This substrate is a bisamide derivative of rhodamine 110(R110) containing DEVD peptides covalently linked to each of R110's amino groups. Upon enzymatic cleavage, the non-fluorescent bisamide substrate converted to the fluorescent R110, which can be quantified by fluorescence microplate reader using excitation at 485±10 nm and emission detection at 535±10 nm.
(§7) (12) (5 μM and 7.5 μM, respectively) for 5 or 16 hr. Both “induced” and “control” cells were then harvested and lysed. Enzyme reactions were performed in 96-well plates with 50 μg of cytosolic proteins (55 minutes of incubation) and with a final concentration of 25 μM Z-DEVD-R110 substrate as described in the kit protocol.

The test system of the next assay is caspase-3 in C-26 cells. The experiment in a line: EnzChek Caspase-3 assay. It is filed as cell-based, human. The note with it: 4.5 μM complex, cisplatin 1.5 μM, 5 or 16 hrs.
Description: as §6, §7

Broadly, the IC50 is the midpoint of a concentration-inhibition curve. For the compound `C1CCNCC1.Cc1ccncc1.[Cl][Pt][Cl]` [Complex 5, trans-[PtCl2(4-picoline)(piperidine)]], the IC50 in the assay on 41M came to 35 ± 4 µM; with A2780, 9 ± 1 µM; in the assay with 41McisR (24 hours incubation, MTS) it was 210 µM; with A2780cisR (24 hours incubation, MTS), 135 ± 7 µM; in the assay with CH1, 26 ± 3 µM; with CH1cisR (24 hours incubation, MTS), 169 ± 9 µM. Moreover, the “resistance factor (IC50 resistant/IC50 sensitive)” value in the assay with 41McisR (41McisR/41M) is listed as 6.0; with A2780cisR (A2780cisR/A2780) it was 15; in the assay with CH1cisR (CH1cisR/CH1) it was “(6.5)”. Besides, the “decrease of EtBr fluorescence intensity by DNA adducts” value in the assay on plasmid pS16-hGH DNA is recorded as “lower than that of cisplatin, however, greater than that of transplatin”. Moreover, the values for the Penetration to cells in the assay with OV-1063 cells [1] and with C-26 cells [2] were 2092 pmol Pt/1 * 10^6 cells and 14974 pmol Pt/1 * 10^6 cells, respectively. Besides, the Pt-DNA adducts in the assay with OV-1063 cells [3] (OV-1063, 24 hr) worked out at 41 pmol Pt/50 μg DNA; in the assay with C-26 cells [4] (C-26, 24 hr), 51 pmol Pt/50 μg DNA. In addition, the “DNA platination relative to Cis-Pt” value in the assay on OV-1063 cells [3] (OV-1063 cells) and in the assay on C-26 cells [4] (C-26 cells) was “the same” each time. Besides, the “caspase-3 activation, increase in fluorescence vs untreated cells” value is given as roughly 2 fold in assay [5] (5 hr, 6.5 μM piperidine complex or 7.5 μM piperazine complex) and 3 fold in [5] (16 hr). In the assay on caspase-3 in C-26 cells, the caspase-3 fluorescent signal entry was “no fluorescent signal”.
